Values after ≈ are worked out from the molar mass of the structure shown. Where two headings read alike, the source gives them in different places. Marks after values point to notes of the source that are not given here.
Experiments:
[1] = system: lung cancer A549 transplanted mouse model; experiment: In vivo tumor growth inhibition, intravenous administration; set-up: species or system Kunming mice; details: 20 mg/kg
Description: The lung cancer A549 transplanted mouse model was employed. DDO-6101 and antitumor drug 5-fluorouracil (5-FU) were also tested for comparison.
Kunming mice with body weights of 18–22 g were transplanted with lung cancer A549 cells according to protocols of transplant tumor research, as previously reported. Twenty-four hours after tumor transplantation, animals were weighed and randomly divided into five groups. All test drugs were given […] 24 h after tumor transplantation. The treated groups were intravenously injected or administered per os different doses of test compounds, respectively. The negative control group received 0.9% normal saline. Treatments were conducted at a frequency of one dose per two days for the intravenous group or one dose per day for the per os group for two or one week, respectively. All animals were sacrificed 24 h after the final treatment. All data are presented as mean ± SD and the statistical significance was evaluated by t-test.

[2] = system: taxol-resistant A549 cell line (A549/taxol); experiment: MTT antiproliferative assay, A549/taxol; type: cell-based; details: Homo sapiens
Description: (§1) The antiproliferative activity of the ten synthesized caged xanthone derivatives, as well as the lead compound DDO-6101 and GA were assessed with the 3-(4,5-dimethylthiazol-2-yl)-2,5-diphenyltetrazolium bromide (MTT) assay, as previously reported, against six human cancer cell lines, including the human lung carcinoma A549 cell line, taxol-resistant A549 cell line (A549/taxol), cisplatin-resistant A549 cell line (A549/cisplatin), the human hepatocellular carcinoma HepG2 cell line, the human colon carcinoma HCT-116 cell line, and the human glioblastoma U251 cell line. DDO-6101 and GA were used as positive controls for the in vitro assay.
(§2) Cancer cell lines were obtained from Cell Bank of Shanghai, Chinese Academy of Sciences. Cells were cultured in 90% RPMI 1640 medium (GIBCO, Invitrogen Corporation, New York, NY, USA) supplemented with 10% fetal bovine serum (Sijiqing Biotechnology Co., Hangzhou, China), 100 U/mL benzyl penicillin, and 100 μg/mL streptomycin in a humidified environment with 5% CO2 at 37 °C. All the tested compounds were dissolved in DMSO at a concentration of 0.01 mol/L and stored at −4 °C.
(§3) The inhibition of tumour cell growth was measured by a modified tetrazolium (MTT) salt assay. Cells were cultured in a 96-well plate and treated with culture medium alone or different concentrations of the compounds. The cells were incubated for 72 h, and then the MTT assay reagent was added. After a 4 h incubation, the formazan product was quantitated at 570 nm. The IC50 values (the concentrations that gave rise to 50% inhibition of cell viability) were calculated using GraphPad Prism 6 using a variable slope (four parameters).

[3] = system: human lung carcinoma A549 cell line; experiment: MTT antiproliferative assay, A549; type: cell-based; details: Homo sapiens, A549; MTT, 72 h
Description: as §1, §2, §3

[4] = system: cisplatin-resistant A549 cell line (A549/cisplatin); experiment: MTT antiproliferative assay, A549/cisplatin; type: cell-based; details: Homo sapiens, 72 h
Description: as §1, §2, §3

[5] = system: human hepatocellular carcinoma HepG2 cell line; experiment: MTT antiproliferative assay, HepG2; type: cell-based; details: 72 h
Description: as §1, §2, §3

[6] = system: U2OS cells; experiment: MTT antiproliferative assay, U2OS; type: cell-based; details: Homo sapiens, 72 h
[7] = system: human colon carcinoma HCT-116 cell line; experiment: MTT antiproliferative assay, HCT116; type: cell-based; details: 72 h
Description: as §1, §2, §3

[8] = Aqueous solubility by HPLC; details: thermodynamic from solid
Source text: (§4) In parallel with the in vitro antitumor activity testing, the physicochemical properties of the target caged xanthone derivatives were theoretically predicted and experimentally determined in an effort to identify potential druglike compounds prior to the time-consuming and costly development and optimization of derivatives that may ultimately fail in efficacy experiments in vivo. The partition coefficient (logD) was experimentally determined on a Gemini Profiler instrument (pION, Inc., Woburn, MA, USA) by a potentiometric titration method. The polar surface area (PSA), as well as intestinal absorption level, were theoretically predicted by Accelrys Discovery Studio 4.0 (BIOVIA, San Diego, CA, USA) using the ADMET protocol. […] The permeability coefficient (Pe) was determined using a standard parallel artificial membrane permeability assay (PAMPA) on a PAMPA Explorer instrument (pION).
(§5) A HPLC system with an ultraviolet (UV) detector was used to detect the solubility of the compounds. The optimal wavelength was 290 nm. Ethanol/water (85:15) was an efficient eluent at a flow rate of 0.5 mL/min. The compounds were stirred in deionized water overnight to maximize the retention of the compounds in solution. Then, the solutions were filtered and the supernatant was used as a fluid sample for HPLC detection. The permeability (Pe) of the compounds was tested with the help of a standard PAMPA (pION). PAMPA was performed on a PAMPA Explorer instrument (pION) with the PAMPA Explorer command software (Version 3.7.4.1). The compounds were diluted to 10 mM with the system solution buffer (pH 7.4). Then, 150 μL of the diluted compound solution was transferred to a UV plate, and the UV spectrum was collected and used as a reference. Then, paint the membrane with 5 μL of gastrointestinal tract (GIT) lipid. The acceptor chamber was filled with 200 μL of acceptor solution buffer, and the donor chamber was filled with 200 μL of diluted compound solution. The PAMPA sandwich was assembled and left at 25 °C for 4 h. The UV spectra (240–500 nm) from the donor and the acceptor were collected. The permeability coefficient was calculated with the PAMPA Explorer Command software (Version 3.7.4.1) based on the area under the curve (AUC) of the reference plate, the donor plate, and the acceptor plate. The permeability coefficient of the compound was tested for four times, and the data are shown as the average values.

[9] = logD by potentiometric titration (Gemini Profiler); type: physicochemical; details: measured on Gemini Profiler instrument (pION); for logD: pH 7.4, read-out: Log D 7.4
[10] = Parallel artificial membrane permeability assay (PAMPA)
Source text: as §4
as §5, with “The PAMPA sandwich was assembled and left at 25 °C for 4 h.” left out

[11] = A549/Taxol, MTT, 72 h, read-out: IC50 A549/Taxol

IC50 [2, 11]	IC50 [3]	IC50 [4]	IC50 [5]	IC50 [6]	IC50 [7]	solubility ([8]; deionized water)	logD [9]	Papp at 4 h, 10 mM ([10]; pH 5)	Papp at 4 h, 10 mM ([10]; pH 6.2)	Papp at 4 h, 10 mM ([10]; pH 7.4)	melting point	Structure (SMILES)	also measured
												O=c1[nH]cc(F)c(=O)[nH]1 [Compound 5-FU, 5-fluorouracil, reference compound]	Body Weight Pre-Dose ([1]; pre-dose): 20.25 ± 1.27 g; Body Weight After-Dose ([1]; two weeks): 24.43 ± 2.62 g; Inhibitory Rate ([1]; two weeks): 64.71%; Weight of Tumor ([1]; two weeks): 0.48 ± 0.17 ^b g
1.22 ± 0.21 µM	1.95 ± 0.4 µM	1.48 ± 0.1 µM	2.12 ± 0.41 µM	2.22 ± 0.09 µM	1.64 ± 0.26 µM	1120 µM (≈ 597 µg/mL)	2.1	27.9 ± 3.3 ×10⁻⁶ cm/s	58.8 ± 2.1 ×10⁻⁶ cm/s	91.4 ± 9.8 ×10⁻⁶ cm/s	156 to 158 °C	CC(C)=CCC12OC(C)(C)C3CC(C=C4C(=O)c5c(OCc6cn(CCN(C)C)nn6)cccc5OC431)C2=O (stereo not drawn) [Compound 8a]	
1.3 ± 0.08 µM	2.62 ± 0.2 µM	1.66 ± 0.11 µM	1.36 ± 0.16 µM	2.73 ± 0.05 µM	2.27 ± 0.05 µM	1540 µM (≈ 842 µg/mL)	1.8	16.3 ± 1.2 ×10⁻⁶ cm/s	41.7 ± 3.2 ×10⁻⁶ cm/s	76.1 ± 6.4 ×10⁻⁶ cm/s	133 to 136 °C	CC(C)=CCC12OC(C)(C)C3CC(C=C4C(=O)c5c(OCc6cn(CCCN(C)C)nn6)cccc5OC431)C2=O (stereo not drawn) [Compound 8b]	
1.29 ± 0.07 µM	2.58 ± 0.39 µM	1.34 ± 0.09 µM	1.19 ± 0.31 µM	2.01 ± 0.2 µM	0.98 ± 0.31 µM	1400 µM (≈ 782 µg/mL)	2.2	42.3 ± 1.5 ×10⁻⁶ cm/s	75.4 ± 6.9 ×10⁻⁶ cm/s	91.9 ± 6 ×10⁻⁶ cm/s	168 to 170 °C	CC(C)=CCC12OC(C)(C)C3CC(C=C4C(=O)c5c(OCc6cn(CCN7CCCC7)nn6)cccc5OC431)C2=O (stereo not drawn) [Compound 8c]	
1.7 ± 0.12 µM	2.62 ± 0.04 µM	0.89 ± 0.24 µM	4.48 ± 0.29 µM	3.05 ± 0.07 µM	1.02 ± 0.03 µM	1920 µM (≈ 1100 µg/mL)	1.6	15.4 ± 2.1 ×10⁻⁶ cm/s	52.8 ± 1.6 ×10⁻⁶ cm/s	66.4 ± 8.4 ×10⁻⁶ cm/s	144 to 146 °C	CC(C)=CCC12OC(C)(C)C3CC(C=C4C(=O)c5c(OCc6cn(CCCN7CCCC7)nn6)cccc5OC431)C2=O (stereo not drawn) [Compound 8d]	
2.03 ± 0.11 µM	2.17 ± 0.12 µM	1.29 ± 0.48 µM	4.85 ± 0.39 µM	4.66 ± 0.03 µM	2.14 ± 0.18 µM	560 µM (≈ 321 µg/mL)	2.9	47.8 ± 4.7 ×10⁻⁶ cm/s	57.2 ± 1.4 ×10⁻⁶ cm/s	78.2 ± 8.8 ×10⁻⁶ cm/s	173 to 176 °C	CC(C)=CCC12OC(C)(C)C3CC(C=C4C(=O)c5c(OCc6cn(CCN7CCCCC7)nn6)cccc5OC431)C2=O (stereo not drawn) [Compound 8e]	Pe range ([10]; range under different pH from 5.0 to 7.4): 47.0–78.2 × 10^–6 cm/s
1.29 ± 0.08 µM	1.07 ± 0.28 µM	1.32 ± 0.12 µM	6.3 ± 0.48 µM	2.07 ± 0.11 µM	1.39 ± 0.04 µM	880 µM (≈ 516 µg/mL)	2.7	34.9 ± 3.6 ×10⁻⁶ cm/s	55.1 ± 0.8 ×10⁻⁶ cm/s	68.7 ± 5.3 ×10⁻⁶ cm/s	125 to 128 °C	CC(C)=CCC12OC(C)(C)C3CC(C=C4C(=O)c5c(OCc6cn(CCCN7CCCCC7)nn6)cccc5OC431)C2=O (stereo not drawn) [Compound 8f]	
0.55 ± 0.08 µM	1.03 ± 0.06 µM	0.36 ± 0.04 µM	3.07 ± 0.13 µM	0.73 ± 0.07 µM	0.95 ± 0.12 µM	3700 µM (≈ 2180 µg/mL)	0.9	40 ± 0.1 ×10⁻⁶ cm/s	58 ± 6.1 ×10⁻⁶ cm/s	72.6 ± 0.1 ×10⁻⁶ cm/s	143 to 145 °C	CC(C)=CCC12OC(C)(C)C3CC(C=C4C(=O)c5c(OCc6cn(CCCN7CCOCC7)nn6)cccc5OC431)C2=O (stereo not drawn) [Compound 8h]	IC50 ([2]; range over both resistant A549 lines and both compounds, read-out: IC50 values, taxol-resistant and cisplatin-resistant A549 cell lines): 0.33 to 0.55 µM
2.12 ± 0.09 µM	3.33 ± 0.49 µM	0.78 ± 0.08 µM	5.35 ± 0.23 µM	9.51 ± 1.52 µM	6.15 ± 0.86 µM	3220 µM (≈ 1890 µg/mL)	1	11.3 ± 0.6 ×10⁻⁶ cm/s	41.5 ± 1.3 ×10⁻⁶ cm/s	67.5 ± 4.2 ×10⁻⁶ cm/s	171 to 175 °C	CC(C)=CCC12OC(C)(C)C3CC(C=C4C(=O)c5c(OCc6cn(CCN7CCN(C)CC7)nn6)cccc5OC431)C2=O (stereo not drawn) [Compound 8i]	
												CC(C)NCC(O)COc1cccc2ccccc12 (stereo not drawn) [Propranolol, reference compound]	Pe pH=7.4 ([10]; pH 7.4): 127.5±15.8 10-6 cm/s; Pe pH=7.4 ([10]; pH 7.4, listed as propranolol): 127.5 10-6 cm/s

Structure (SMILES)	IC50 [2, 11]	IC50 [3]	IC50 [4]	IC50 [5]	IC50 [6]	IC50 [7]	solubility ([8]; deionized water)	logD [9]	Papp at 4 h, 10 mM ([10]; pH 5)	Papp at 4 h, 10 mM ([10]; pH 6.2)	Papp at 4 h, 10 mM ([10]; pH 7.4)	melting point	also measured
CC(C)=CCC[C@]1(C)C=Cc2c(O)c3c(c(CC=C(C)C)c2O1)O[C@]12C(=C[C@@H]4C[C@H]1C(C)(C)O[C@@]2(C/C=C(/C)C(=O)O)C4=O)C3=O [GA, Gambogic acid, reference compound]	0.29 ± 0.04 µM		2.5 ± 0.06 µM		4.67 ± 0.11 µM	0.34 ± 0.08 µM							solubility ([8]; water): < 5 µM; Log D 7.4 [9]: 3.6; Pe range ([10]; PAMPA, 4 h, 10 mM): 0.9–2.3 × 10^–6 cm/s; Papp at 4 h, 10 mM ([10]; PAMPA, pH 5): 0.9 ± 0.5 ×10⁻⁶ cm/s; Pe pH=6.2 ([10]; pH 6.2): 1.8±0.2 10-6 cm/s; Pe pH=7.4 ([10]; pH 7.4): 2.3±0.3 10-6 cm/s

From publication PMC6150271, “‘Click Chemistry’ Synthesis of Novel Natural Product-Like Caged Xanthones Bearing a 1,2,3-Triazole Moiety with Improved Druglike Properties as Orally Active Antitumor Agents” (Molecules : A Journal of Synthetic Chemistry and Natural …, 2017)
